In BindingDB's records for patent US20240124427 (Idorsia Pharmaceuticals, 2024):

Each compound was assayed against Galectin-3 (Homo sapiens, UniProt P17931) (assay: Spectrophotometric Assay).
Procedure: The inhibitory activity of compounds is determined in competitive binding assays. […] Finally, 25 μL/well of ABTS substrate is added.

Sequence of Galectin-3 (P17931 whole entry): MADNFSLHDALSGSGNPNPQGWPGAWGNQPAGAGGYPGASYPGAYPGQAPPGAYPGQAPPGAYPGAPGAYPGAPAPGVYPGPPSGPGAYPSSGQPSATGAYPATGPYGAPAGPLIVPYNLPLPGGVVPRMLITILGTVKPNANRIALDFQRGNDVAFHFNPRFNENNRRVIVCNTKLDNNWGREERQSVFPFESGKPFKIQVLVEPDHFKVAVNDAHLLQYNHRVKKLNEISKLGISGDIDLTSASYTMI

Row | IC50 [nM] | Compound
1 | 12 | CO[C@@H]1[C@@H](n2cc(-c3ccc(Br)c(F)c3F)nn2)[C@@H](O)[C@@H](CO)O[C@H]1C(=O)N(c1cc(Cl)cc(Cl)c1)[C@H]1CNC[C@@H]1O [US20240124427, Example 62]
2 | 46 | CO[C@@H]1[C@@H](n2cc(-c3cc(F)c(Cl)c(F)c3)nn2)[C@@H](O)[C@@H](CO)O[C@H]1C(=O)N(c1cc(Br)cc(C#N)c1)[C@@H]1COC[C@H]1O [US20240124427, Example 53]
3 | 67 | CO[C@@H]1[C@@H](n2cc(-c3cc(F)c(F)c(F)c3)nn2)[C@@H](O)[C@@H](CO)O[C@H]1C(=O)N(c1cc(Br)cc(C#N)c1)[C@@H]1COC[C@H]1O [US20240124427, Example 36]
4 | 72 | CO[C@@H]1[C@@H](n2cc(-c3cc(F)c(F)c(F)c3)nn2)[C@@H](O)[C@@H](CO)O[C@H]1C(=O)N(c1cc(Cl)cc(Cl)c1)[C@H]1COC[C@@H]1O [US20240124427, Example 4]
5 | 73 | CO[C@@H]1[C@@H](n2cc(-c3cc(F)c(Cl)c(F)c3)nn2)[C@@H](O)[C@@H](CO)O[C@H]1C(=O)N(c1cc(Br)cc(C#N)c1)[C@H]1COC[C@@H]1O [US20240124427, Example 24]
6 | 83 | CO[C@@H]1[C@@H](n2cc(-c3cc(F)c(F)c(F)c3)nn2)[C@@H](O)[C@@H](CO)O[C@H]1C(=O)N(c1cc(Br)cc(C#N)c1)[C@H]1COC[C@@H]1O [US20240124427, Example 7]
